# ChEMBL document CHEMBL5137082, “Discovery of a Novel Vascular Disrupting Agent Inhibiting Tubulin Polymerization and HDACs with Potent Antitumor Effects” (J Med Chem, 2022)
# The source made the active and inactive calls. The calls are words filed in the database; no cut-off is given here.
# Assays:
# [1] = system: HepG2; experiment: Induction of apoptosis in human HepG2 cells assessed as early apoptotic cells at 7.5 nM incubated for 48 hrs by Annexin-V/PI-staining based flow cytometry (reference value: 4.61 +/- 0.46%); format: functional
# [2] = target: Histone deacetylase 2 (Homo sapiens, UniProt Q92769); experiment: Inhibition of HDAC2 in human HeLa cells using BOC-K(Ac)-AMC as substrate measured after 30 mins by fluorescence based microtiter plate reader assay; format: cell-based
# Chain of Histone deacetylase 2 (Q92769 whole entry): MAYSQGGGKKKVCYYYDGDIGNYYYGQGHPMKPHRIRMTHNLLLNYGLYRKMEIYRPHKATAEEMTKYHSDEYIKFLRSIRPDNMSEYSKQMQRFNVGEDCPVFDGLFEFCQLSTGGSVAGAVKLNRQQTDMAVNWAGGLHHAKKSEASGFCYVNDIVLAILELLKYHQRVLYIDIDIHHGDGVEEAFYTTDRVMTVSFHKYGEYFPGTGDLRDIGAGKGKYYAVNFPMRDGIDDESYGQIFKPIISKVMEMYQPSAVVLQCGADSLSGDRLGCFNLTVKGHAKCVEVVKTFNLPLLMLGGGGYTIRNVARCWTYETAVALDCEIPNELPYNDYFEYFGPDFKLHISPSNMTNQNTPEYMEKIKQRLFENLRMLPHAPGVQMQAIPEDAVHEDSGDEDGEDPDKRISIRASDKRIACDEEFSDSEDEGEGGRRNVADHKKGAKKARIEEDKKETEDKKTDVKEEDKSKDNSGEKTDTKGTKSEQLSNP
# [3] = Induction of apoptosis in ICR mouse cardiac tissue at 20 mg/kg, iv administered qd measured after 21 days by TUNEL assay; format: toxicity, organism-based; details: in vivo, 504 h, time 21 day
# [4] = Toxicity in ICR mouse allografted with mouse H22 cells assessed as systolic blood pressure at 20 mg/kg, iv administered qd measured after 21 days; format: organism-based; details: in vivo, 504 h, time 21 day
# [5] = system: MDA-MB-231; experiment: Antiproliferative activity against human MDA-MB-231 cells assessed as inhibition of cell growth measured after 72 hrs by MTT assay; format: functional, cell-based; details: MDA-MB-231, 72 h
# [6] = Cardiotoxicity in ICR mouse allografted with mouse H22 cells assessed as effect on P wave at 20 mg/kg, iv administered qd measured after 21 days by ECG analysis; format: toxicity, organism-based; details: in vivo, 504 h, time 21 day
# [7] = Metabolic stability in mouse plasma assessed as compound remaining at 40 uM measured after 0.5 hrs by LC-MS/MS analysis (reference value: 100%); format: ADME, cell-free
# [8] = Metabolic stability in mouse plasma assessed as compound remaining at 40 uM measured after 2 hrs by LC-MS/MS analysis (reference value: 100%); format: ADME, cell-free
# [9] = system: HepG2; experiment: Induction of morphological changes in human HepG2 cells assessed as nuclear fragmentation at 7.5 to 30 nM after 48 hrs by Hoechst 33258 staining based fluorescence microscopic analysis; format: functional, cell-based; details: dose 7.5-30 nM
# [10] = system: MDA-MB-231; experiment: Inhibition of cell invasion in human MDA-MB-231 cells measured after 48 hrs by crystal violet staining based transwell assay; format: functional; details: dose 7.5-30 nM, DDE = dose-dependent effect
# [11] = target: T1, Tubulin (Homo sapiens) (UniProt P68371+Q9H4B7+P0DPH7+P68366+Q13509+Q71U36+P04350+Q3ZCM7+P07437+P68363+Q9BQE3+Q6PEY2+Q13885+Q9BVA1+Q9BUF5); experiment: Inhibition of [3H]Colchicine binding to tubulin (unknown origin) at 1 uM measured after 2 hrs by scintillation counting method relative to control; format: protein-complex assay
# [12] = Toxicity in ICR mouse allografted with mouse H22 cells assessed as change in heart rate at 20 mg/kg, iv administered qd measured after 21 days; format: organism-based; details: in vivo, 504 h, time 21 day
# [13] = system: HUVEC; experiment: Antivascular activity against HUVEC cells assessed as inhibition of capillary-like tubule formation at 30 nM measured after 6 hrs by inverted microscopy; format: functional, cell-based; details: Homo sapiens
# [14] = system: HepG2; experiment: Induction of apoptosis in human HepG2 cells assessed as downregulation of Bcl-xL protein expression measured after 24 hrs by Western blot analysis; format: functional, cell-based; details: dose 7.5-30 nM, DDE = dose-dependent effect
# [15] = system: HepG2; experiment: Induction of cell cycle arrest in human HepG2 cells assessed as accumulation S phase at 15 nM incubated for 48 hrs by propidium iodide staining based flow cytometry analysis (reference value: 17.14 +/- 0.34%); format: functional
# [16] = Cardiotoxicity in ICR mouse allografted with mouse H22 cells assessed as effect on QRS complex at 20 mg/kg, iv administered qd measured after 21 days by ECG analysis; format: toxicity, organism-based; details: in vivo, 504 h, time 21 day
# [17] = system: HepG2; experiment: Induction of G2/M phase cell cycle arrest in human HepG2 cells assessed as decrease in Cdc2 protein expression at 7.5 to 30 nM measured after 24 hrs by western blot analysis; format: functional, cell-based; details: dose 7.5-30 nM
# [18] = Metabolic stability in mouse liver microsomes assessed as intrinsic clearance at 1 uM in presence of NADPH measured per gram protein up to 60 mins by LC-MS/MS analysis; format: ADME, Microsome; details: 1 h
# [19] = Toxicity in ICR mouse allografted with mouse H22 cells assessed as pathological changes in liver at 20 mg/kg, iv administered qd measured after 21 days by H and E staining based analysis; format: organism-based; details: in vivo, 504 h, time 21 day
# [20] = target: T1, Tubulin (Homo sapiens); experiment: Inhibition of [3H]Colchicine binding to tubulin (unknown origin) at 5 uM measured after 2 hrs by scintillation counting method relative to control; format: protein-complex assay
# [21] = system: HepG2; experiment: Antiproliferative activity against human HepG2 cells assessed as inhibition of cell growth measured after 72 hrs by MTT assay; format: functional, cell-based; details: HepG2, 72 h
# [22] = target: Histone deacetylase 1 (Homo sapiens, UniProt Q13547); experiment: Inhibition of HDAC1 in human HepG2 cells assessed as increase in level of acetyl histone H3substrate incubated for 24 hrs by chemiluminescence based Western blotting analysis; format: cell-based; details: dose 0.03-0.3 µM
# Chain of Histone deacetylase 1 (Q13547 whole entry): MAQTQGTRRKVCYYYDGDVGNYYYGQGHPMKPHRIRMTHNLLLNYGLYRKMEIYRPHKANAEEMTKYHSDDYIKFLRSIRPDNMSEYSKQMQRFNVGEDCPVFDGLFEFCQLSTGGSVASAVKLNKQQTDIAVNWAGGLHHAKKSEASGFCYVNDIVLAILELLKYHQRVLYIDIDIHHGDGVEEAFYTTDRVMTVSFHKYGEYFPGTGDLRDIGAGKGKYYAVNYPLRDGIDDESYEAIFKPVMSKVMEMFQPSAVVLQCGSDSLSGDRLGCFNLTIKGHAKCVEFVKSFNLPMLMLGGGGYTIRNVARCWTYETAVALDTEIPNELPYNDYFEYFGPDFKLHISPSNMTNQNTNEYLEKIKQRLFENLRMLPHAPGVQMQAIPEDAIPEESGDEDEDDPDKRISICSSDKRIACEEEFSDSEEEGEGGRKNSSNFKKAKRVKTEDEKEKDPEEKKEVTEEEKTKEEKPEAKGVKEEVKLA
# [23] = Metabolic stability in mouse assessed as hepatic clearance; format: ADME; details: 1 h, 1 µM, time < 60 min
# [24] = Antiproliferative activity against HUVEC cells assessed as inhibition of cell growth measured after 24 hrs by MTT assay; format: toxicity, cell-based; details: human
# [25] = system: HepG2; experiment: Induction of G2/M phase cell cycle arrest in human HepG2 cells assessed as decrease in cyclin B1 protein expression at 7.5 to 30 nM measured after 24 hrs by western blot analysis; format: functional, cell-based; details: dose 7.5-30 nM
# [26] = system: HCT-116; experiment: Antiproliferative activity against human HCT-116 cells assessed as inhibition of cell growth measured after 72 hrs by MTT assay; format: functional, cell-based; details: HCT-116, 72 h
# [27] = system: PC-3; experiment: Induction of apoptosis in human PC-3 cells assessed as mitochondrial membrane potential loss by measuring decrease in […] fluorescence at 7.5 nM incubated for 48 hrs by JC1 staining based flow cytometry analysis (reference value: 93.48 +/- 0.15%); format: functional; design: scale not given: the % may be the effect or the level left
# [28] = system: K562; experiment: cells; format: functional, cell-based; details: Homo sapiens, K562, 72 h
# Description: Antiproliferative activity against human K562 cells assessed as inhibition of cell growth measured after 72 hrs by MTT assay
# [29] = target: T1, Tubulin (Homo sapiens); experiment: Induction of microtubule disruption in human HepG2 cells assessed as loss of cellular structure at 7.5 to 30 nM measured after 2 hrs by DAPI staining based immunofluorescence microscopic assay; format: cell-based; details: dose 7.5-30 nM
# [30] = system: HepG2; experiment: Induction of apoptosis in human HepG2 cells assessed as viable cells at 30 nM incubated for 48 hrs by Annexin-V/PI-staining based flow cytometry (reference value: 91.44 +/- 0.74%); format: functional; details: read-out: Activity
# [31] = system: Mus musculus; experiment: In vivo inhibition of HDAC in ICR mouse allografted with mouse H22 cells assessed as upregulation of acetyl-histone H3 expression at 20 mg/kg, iv qd administered for 21 days measured after 24 hrs by Western blot analysis; format: functional, organism-based; details: time 21.0 day
# [32] = system: HepG2; experiment: Induction of apoptosis in human HepG2 cells assessed as viable cells at 15 nM incubated for 48 hrs by Annexin-V/PI-staining based flow cytometry (reference value: 91.44 +/- 0.74%); format: functional; details: read-out: Activity
# [33] = system: Mus musculus; experiment: In vivo inhibition of HDAC in ICR mouse allografted with mouse H22 cells assessed as upregulation of acetyl-alpha tubulin expression at 20 mg/kg, iv qd administered for 21 days measured after 24 hrs by Western blot analysis; format: functional, organism-based; details: time 21.0 day
# [34] = Toxicity in ICR mouse allografted with mouse H22 cells assessed as pathological changes in heart at 20 mg/kg, iv administered qd measured after 21 days by H and E staining based analysis; format: organism-based; details: in vivo, 504 h, time 21 day
compound,measurement,setting,value
COc1ccc(CNC(=O)c2cc(F)ccc2N2CCOCC2)cc1/C=C/C(=O)NO,Activity,[1],20.15%
same,IC50,[2],135 nM
same,Activity,[3],Non-Toxic
same,Activity,[4],Non-Toxic
same,IC50,[5],30 nM
same,Activity,[6],Non-Toxic
same,Stability,[7],59%
same,Stability,[8],30.7%
same,Activity,[9],Active
same,inhibition,[10],Dde
same,inhibition,[11],52.3%
same,Activity,[12],Non-Toxic
same,Activity,[13],Active
same,Activity,[14],Dde
same,Activity,[15],23.06%
same,Activity,[16],Non-Toxic
same,Activity,[17],Active
same,CLH,[18],41.7 mL/min/g
same,Activity,[19],Non-Toxic
same,inhibition,[20],63.4%
same,IC50,[21],29 nM
same,inhibition,[22],Active
same,CLH,[23],1.45 mL/min
same,IC50 at 24 h,[24],271 nM
same,Activity,[25],Active
same,IC50,[26],28 nM
same,Activity,[27],76.73%
same,IC50,[28],18 nM
same,Activity,[29],Active
same,viability at 0.03 µM,[30],46.6%
same,inhibition,[31],Active
same,viability at 0.015 µM,[32],65.7%
same,inhibition,[33],Active
same,Activity,[34],Non-Toxic
